Drawing on patent US20240360114A1 (SIRONAX LTD., priority 2021, published 2024), this text covers EC50 for 41 compounds.

One assay has as its system HT-1080 cells. As to the kind of experiment: HT-1080 cell viability assay (ferroptosis induced by RSL3, Cell Titer-Glo). Type of assay: cell-based. The following applies: Homo sapiens, HT-1080, 20 h, ferroptosis inducer RSL3, 20 hours, ferroptosis inhibitory activity, Table 2. The gist of the method: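 EC50 fitted by sigmoidal dose-response regression on luminescent viability data normalized to untreated cells. Compounds ran as a 10-point, 3-fold series from 1.1 μM alongside RSL3 for 20 hours, after overnight seeding.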
For orientation: In ATP-based viability assays light output follows the ATP content of the culture.
The EC50 is the concentration at which the effect is half-maximal. Higher therefore signals a need for much substance. With `NC1CC2(C1)CC(Nc1ccc(N3CCC(C(F)(F)F)CC3)cc1F)C2` (centres unmarked) [Compound 364, N2-(2-fluoro-4-(4-(trifluoromethyl)piperidin-1-yl)phenyl)spiro[3.3]heptane-2,6-diamine], the EC50 was 0.1 to 100 nM.

`CC(C)(C)c1ccc(NC2CCC(N)CC2)c(F)c1` (centres unmarked) [Compound 190, N1-(4-(tert-butyl)-2-fluorophenyl)cyclohexane-1,4-diamine] registered an EC50 of 100 to 1000 nM.

The compound `CC(CN1CCCC1)Nc1ccc(C2CCC(C)(C)CC2)cc1` (centres unmarked) [Compound 297, 4-(4,4-dimethylcyclohexyl)-N-(1-(pyrrolidin-1-yl)propan-2-yl)aniline] yielded an EC50 of 0.1 to 100 nM.

Take `CC(C)C1CCN(c2ncc(NC3C4CC5CC3CC(C(N)=O)(C5)C4)cn2)CC1` (centres unmarked) [Compound 388, 4-((2-(4-isopropylpiperidin-1-yl)pyrimidin-5-yl)amino)adamantane-1-carboxamide]: the EC50 lay within 0.1 to 100 nM.

Consider `CC(C)(C)c1ccc(NC2CCC(NCC(F)(F)F)CC2)cc1` (centres unmarked) [Compound 168A, N-(4-(tert-butyl)phenyl)-N-(2,2,2-trifluoroethyl)cyclohexane-1,4-diamine], for which the EC50 fell in the range of 1000 to 10000 nM.

Compound `CNC(=O)C1CCC(Nc2ccc(N3CCC(C(F)(F)F)CC3)cc2)CC1` (centres unmarked) [Compound 365, N-methyl-4-((4-(4-(trifluoromethyl)piperidin-1-yl)phenyl)amino)cyclohexane-1-carboxamide] registered an EC50 of 0.1 to 100 nM.

For the compound `Cc1nc(N2CCC(C)CC2)ccc1NC1CCC(CN)CC1` (centres unmarked) [Compound 26, N-(4-(aminomethyl)cyclohexyl)-2-methyl-6-(4-methylpiperidin-1-yl)pyridin-3-amine], the EC50 is 0.1 to 100 nM.

Compound `CC(C)(C)c1ccc(NCCOCCO)cc1` [Compound 179, 2-(2-((4-(tert-butyl)phenyl)amino)ethoxy) ethan-1-ol] showed an EC50 of 1000 to 10000 nM.

As for `CC(C)Oc1ccc(NC[C@H]2CC[C@H](N)CC2)cc1` [Compound 353, N-(((1r,4r)-4-aminocyclohexyl)methyl)-4-isopropoxyaniline], the EC50 lay in the range of 0.1 to 100 nM.

The compound `CC1CN(c2c(F)cc(NC[C@H]3CC[C@H](N)CC3)cc2F)CC(C)O1` (some centres unmarked) [Compound 439, N-(((1r,4r)-4-aminocyclohexyl)methyl)-4-(2,6-dimethylmorpholino)-3,5-difluoroaniline] had an EC50 of 100 to 1000 nM.

Compound `O=C(NCC1CCC(Nc2ccc(N3CCC(C(F)(F)F)CC3)cc2)CC1)C1CCNC1` (centres unmarked) [Compound 19, N-((4-((4-(4-(trifluoromethyl)piperidin-1-yl)phenyl)amino)cyclohexyl)methyl)pyrrolidine-3-car boxamide] gave an EC50 of 0.1 to 100 nM.

Turning to `O=C1NCC(C(=O)NC2CC3(C2)CC(Nc2ccc(N4CCC(C(F)(F)F)CC4)cc2)C3)N1` (centres unmarked) [Compound 374, 2-oxo-N-(6-((4-(4-(trifluoromethyl)piperidin-1-yl)phenyl)amino)spiro[3.3]heptan-2-yl)imidazo lidine-4-carboxamide], the EC50 lay within 0.1 to 100 nM.

`CN(C)C(=O)C1CCC(Nc2ccc(N3CCC(C(F)(F)F)CC3)cc2)CC1` (centres unmarked) [Compound 366, N,N-dimethyl-4-((4-(4-(trifluoromethyl)piperidin-1-yl)phenyl)amino)cyclohexane-1-carboxamide] registered an EC50 of 0.1 to 100 nM.

Compound `CCN1CCC(Nc2ccc(C3CCCCC3)cc2)CC1` [Compound 72, N-(4-cyclohexylphenyl)-1-ethylpiperidin-4-amine] gave an EC50 of 0.1 to 100 nM.

As to `CCNC1C[C@@H]2CC(Nc3ccc(N4CCC(C(F)(F)F)CC4)cc3F)C[C@@H]2C1` (stereo partly drawn) [Compound 373, (3aR,6aS)-N2-ethyl-N5-(2-fluoro-4-(4-(trifluoromethyl)piperidin-1-yl)phenyl)octahydropentalene-2,5-diamine], the concentration for a half-maximal effect (EC50) was 0.1 to 100 nM.

With `CC(C)(C)c1cccc(NC2CCC(N)CC2)c1` (single isomer, unassigned) [Compound 153A, N1-(3-(tert-butyl)phenyl)cyclohexane-1,4-diamine], the EC50 lay within 100 to 1000 nM.

Take `CCOCCOC1CCN(c2ccc(NC3CC4(CC(N)C4)C3)c(C)c2)CC1` (centres unmarked) [Compound 470, N2-(4-(4-(2-ethoxyethoxy)piperidin-1-yl)-2-methylphenyl)spiro[3.3]heptane-2,6-diamine]: the concentration for a half-maximal effect (EC50) was in the range of 0.1 to 100 nM.

`CCCC1CN(c2ncc(NC3CCC(N)CC3)cn2)C1` (centres unmarked) [Compound 46, N1-(2-(3-propylazetidin-1-yl)pyrimidin-5-yl)cyclohexane-1,4-diamine]: the EC50 was 100 to 1000 nM.

Turning to `COC1(C)CCN(c2ccc(NC3CC4(CC(N)C4)C3)c(C)n2)CC1` (centres unmarked) [Compound 536, N2-(6-(4-methoxy-4-methylpiperidin-1-yl)-2-methylpyridin-3-yl)spiro[3.3]heptane-2,6-diamine], the EC50 fell in the range of 0.1 to 100 nM.

The compound `Cc1nc(N2CCC(C(C)C)CC2)ccc1NC1CCC(CN)CC1` (centres unmarked) [Compound 31, N-(4-(aminomethyl)cyclohexyl)-6-(4-isopropylpiperidin-1-yl)-2-methylpyridin-3-amine] gave an EC50 of 0.1 to 100 nM.

`NC1CCC(Nc2cccc(N3CCC(C(F)(F)F)CC3)c2)CC1` (centres unmarked) [Compound 384, N1-(3-(4-(trifluoromethyl)piperidin-1-yl)phenyl)cyclohexane-1,4-diamine] gave an EC50 of 100 to 1000 nM.

Take `N[C@H]1CC[C@H](CNc2ccc(N3CCC(C(F)(F)F)CC3)nc2)CC1` [Compound 398, N-(((1r,4r)-4-aminocyclohexyl)methyl)-6-(4-(trifluoromethyl)piperidin-1-yl)pyridin-3-amine]: the EC50 lay within 0.1 to 100 nM.

On to `CC(C)(C)c1ccc(NCCn2ccnc2)cc1` [Compound 175, N-(2-(1H-imidazol-1-yl)ethyl)-4-(tert-butyl)aniline], for which the EC50 lay in the range of 1000 to 10000 nM.

The compound `CC(C)(C)c1ccc(NC2CCC(N)C2)cc1` (centres unmarked) [Compound 124, N1-(4-(tert-butyl)phenyl)cyclopentane-1,3-diamine] registered an EC50 of 100 to 1000 nM.

In turn, `Cc1cc(N2CCCOCC2)ccc1NC1CC2(CC(N)C2)C1` (centres unmarked) [Compound 465, N2-(2-methyl-4-(1,4-oxazepan-4-yl)phenyl)spiro[3.3]heptane-2,6-diamine] displayed an EC50 of 0.1 to 100 nM.

Take `N[C@H]1CCC[C@H]1Nc1ccc(N2CCC(C(F)(F)F)CC2)cc1` [Compound 454, (1R, 2S)-N1-(4-(4-(trifluoromethyl)piperidin-1-yl)phenyl)cyclopentane-1.2-diamine]: the EC50 is 0.1 to 100 nM.

Compound `CC(C)(C)c1ccc(NCCN2CCCC2)cc1` [Compound 202, 2-(pyrrolidin-1-yl) acetaldehyde--4-(tert-butyl)-N-(2-(pyrrolidin-1-yl)ethyl)aniline-4-(tert-butyl)aniline] returned an EC50 of 1000 to 10000 nM.

As for `Cc1nc(N2CCSCC2)ccc1NC1CC2(CC(N)C2)C1` (centres unmarked) [Compound 569, N^2-(2-methyl-6-thiomorpholinopyridin-3-yl) spiro[3.3]heptane-2,6-diamine], the EC50 was in the range of 0.1 to 100 nM.

In the case of `Cc1nc(N2C[C@@H](C)O[C@@H](C)C2)ccc1NC1CC2(CC(N)C2)C1` (some centres unmarked) [Compound 488A, N2-(6-(2,6-dimethylmorpholino)-2-methylpyridin-3-yl)spiro[3.3]heptane-2,6-diamine], the EC50 is 0.1 to 100 nM.

In turn, `Cc1nc(N2C[C@@H](C)N(CC(F)(F)F)[C@@H](C)C2)ccc1NC[C@H]1CC[C@H](N)CC1` [Compound 543, N-(((1r,4R)-4-aminocyclohexyl)methyl)-6-((3R,5S)-3,5-dimethyl-4-(2,2,2-trifluoroethyl)piperazin-1-yl)-2-methylpyridin-3-amine] registered an EC50 of 0.1 to 100 nM.

Regarding `NC1C[C@@H]2CC(Nc3ccc(N4CCC(C(F)(F)F)CC4)cc3)C[C@@H]2C1` (stereo partly drawn) [Compound 363, (3aR, 6aS)-N2-(4-(4-(trifluoromethyl)piperidin-1-yl)phenyl) octahydropentalene-2,5-diamine], the EC50 was 0.1 to 100 nM.

As for `CC(C)(C)c1ccc(NC2CCC(N)CC2)c(C#N)c1` (centres unmarked) [Compound 187, 2-((4-aminocyclohexyl)amino)-5-(tert-butyl)benzonitrile], the EC50 is 1000 to 10000 nM.

Compound `NCC1CCC(Nc2ccc(N3CCC(C(F)(F)F)CC3)nc2)CC1` (centres unmarked) [Compound 21, N-(4-(aminomethyl)cyclohexyl)-6-(4-(trifluoromethyl)piperidin-1-yl)pyridin-3-amine] returned an EC50 of 0.1 to 100 nM.

The same assay, now with this note: Homo sapiens, HT-1080, 20 h, ferroptosis inducer RSL3, 20 hours, ferroptosis inhibitory activity, Table 3.
`Cc1nc(N2CCC(C)(C)CC2)ccc1NC1CC2(CC(N)C2)C1` (centres unmarked) [Compound 602, N2-(6-(4,4-dimethylpiperidin-1-yl)-2-methylpyridin-3-yl)spiro[3.3]heptane-2,6-diamine] yielded an EC50 of 0.1 to 100 nM.

`CC1CN(c2ccc3cc(NC4CC5(CC(O)C5)C4)ccc3c2)CC(C)N1CC(F)(F)F` (centres unmarked) [Compound 610]: the EC50 lay within 0.1 to 100 nM.

As for `CN(CC(F)(F)F)c1ccc2cc(NC3CC(N)C3)ccc2c1` (centres unmarked) [Compound 654], the EC50 was in the range of 0.1 to 100 nM.

For `Cc1nc(N2CCOC3(CCC3)C2)ccc1NC1CC2(CC(N)C2)C1` (centres unmarked) [Compound 626, N^2-(2-methyl-6-(5-oxa-8-azaspiro[3.5]nonan-8-yl)pyridin-3-yl)spiro[3.3]heptane-2,6-diamine], the EC50 was 0.1 to 100 nM.

With `C[C@@H]1CN(c2ccc(NC3CC4(CC(N)C4)C3)c(OC(F)F)n2)C[C@H](C)O1` (stereo partly drawn) [Compound 637, N^2-(2-(difluoromethoxy)-6-((25,6R)-2,6-dimethylmorpholino)pyridin-3-yl)spiro[3.3]heptane-2,6-diamine], the EC50 is 0.1 to 100 nM.

Consider `CC1CN(c2ccc3cc(NC4CC(N)C4(C)C)ccc3c2)CCO1` (centres unmarked) [Compound 661], for which the EC50 is 0.1 to 100 nM.

Still in this assay, the particulars now being: ferroptosis inducer RSL3, 20 hours, ferroptosis inhibitory activity, Table 2.
`CC1(N)CCC(Nc2ccc3c(c2)CCCC3)CC1` (centres unmarked) [Compound 285, 1-methyl-N4-(5,6,7,8-tetrahydronaphthalen-2-yl)cyclohexane-1,4-diamine] gave an EC50 of 0.1 to 100 nM.

`CCC(C)c1ccc(NC2CCC(N)CC2)cc1` (single isomer, unassigned) [Compound 289A, 1-N-(4-(sec-butyl)phenyl)cyclohexane-1,4-diamine] yielded a 50% effective concentration (EC50) of 0.1 to 100 nM.
